The results in this text go back to US20080039425A1, “Methods and Compositions to Reduce Tissue Irritation in Parenteral Formulations” (ALLOS THERAPEUTICS, INC., priority 2004, published 2008).

For this series, the system named is rat tail vein. Put plainly: Rat-tail model, histopathological evaluation of tissue damage. The note with it: for Histopathology Score: rat tail vein, relative to efaproxiral at 38 mg/mL. In kind it is in vivo. Here is the method:
In order to determine if the effects seen in the NMR correlated to an ability of the dextrins to protect tissue, an animal model was designed. […] A 38 mg/mL efaproxiral solution was administered as the positive control. A saline solution was used as the negative control.
Maltodextrin has the property of being a safer molecule than its cyclic relative.

`Cc1cc(C)cc(NC(=O)Cc2ccc(OC(C)(C)C(=O)[O-])cc2)c1.[Na+]` [efaproxiral-Na]: the “Tissue damage in rat tail (in words)” value (38 mg/mL efaproxiral, compared with saline negative control) was “significant damage was observed beyond that associated with the administration”.

Regarding `Cc1cc(C)cc(NC(=O)Cc2ccc(OC(C)(C)C(=O)O)cc2)c1` [Efaproxiral, 2-[4-[2-[(3,5-dimethylphenyl)amino]-2-oxoethyl]phenoxy]-2-methyl-propionic acid], the “Histopathology Score” value reads like this: (efaproxiral 20 mg/mL) 24%; (efaproxiral 38 mg/mL (positive control)) 100%.
